{"source": "patent US20250170124A1", "about": "“METHODS OF DIAGNOSING AND TREATING NEURODEGENERATIVE DISEASES” (The General Hospital Corporation, priority 2022, published 2025)", "key": {"SNCA IRE": {"test_system": "SNCA IRE", "assay": "Spinach fluorescent assay, SNCA IRE fluorescence sensor R7"}, "α-Syn": {"test_system": "α-Syn", "assay": "Decrease of α-syn in Triple SNCA cortical neurons", "settings": "concentration not given; for Decrease αsyn(%) X3 SNCA neurons: Table 2"}, "α-Synuclein [1]": {"test_system": "α-Synuclein", "assay": "Western blots of α-syn in iPSC derived DA neuron lysates", "format": "cell-based, human"}, "[2]": {"test_system": "alpha-synuclein 5′-UTR IRE (SNCA 5′UTR)", "assay": "Primary screen/retest: ASYN 5′-UTR IRE-driven luciferase expression in H4 cells", "format": "cell-based, human", "settings": "48 h"}, "α-Synuclein [3]": {"test_system": "α-Synuclein", "assay": "Decrease of α-syn in iPSC derived DA neurons", "format": "cell-based, human", "design": "Decrease syn(%) DA neurons: dose or concentration left out as unconfirmed", "settings": "for Decrease αsyn(%) DA neurons: Table 2; for Decrease syn(%) DA neurons: Table 3"}, "alpha-synuclein": {"test_system": "alpha-synuclein", "assay": "ELISA secondary screen for alpha-synuclein in SH-SY5Y cells", "format": "cell-based, human", "design": "Decrease syn(%) SHSY5Y cells: unit of the concentration uncertain", "settings": "for Decrease αsyn(%) SHSY5Y cells: Table 2; for Decrease syn(%) SHSY5Y cells: Table 3", "procedure": "FIG. 2 illustrates the results of ELISA experiments with compound 10 in SH-SY5Y cells. […]\nFIG. 18 illustrates alpha Synuclein ELISA (Invitrogen) measurements from SHSY5 undifferentiated neurons treated with the indicated doses (triplicate wells) of compounds 2, 13, 11, 14, 15, and 16) for 48 h.\nA human ASYN ELISA kit was utilized for all ELISA experiments (Invitrogen alpha-synuclein ELISA kit KHB0061) and the kit protocol was followed.\n1) Plate SH-SY5Y […] cells (Corning, 3570) at 10,000 cells/well in 50 μL phenol red free media (phenol red-free DMEM with 4.5 g/L D-glucose [Lonza, 12-917F] supplemented with 10% FBS [Lonza, 14-503E], 200 μM L-glutamine [Lonza, 17-605E], 100 μM penstrep [Lonza, 17-602E] and 200 μg/mL geneticin [Invitrogen, 10131-027]).\n2) Lid plates, then incubate cells for 24 hours at 37° C., 5% CO2, 95% humidity in a tissue culture incubator.\n3) Pin 100 nL of each compound into the assay plates spanning a final concentration range from 100-0.006 μM.\n4) Incubate plates for 48 h at 37° C., 5% CO2, 95% humidity. Following incubation, add 5 μL of Alamar blue solution per well and allow to incubate for 1 h at 37° C., 5% CO2, 95% humidity.\n5) Read Alamar blue fluorescence using a Thermo Varioskan (570 nm excitation, 585 nm emission). Remove cell media and add 30 μL cell lysis solution with protease inhibitor (G Biosciences, 786-331; 10 μL/mL).\n6) Place plates on a plate shaker for 1 h, before removing 20 μL lysate. Transfer cell lysates to 500 μL Eppendorf tubes and centrifuge (Eppendorf Centrifuge 5417C) for 10 min at 13,000 rpm.\n7) Add 12 μL of the cell supernatant to 48 μL of standard diluent buffer (1:5). Add these samples to ELISA plate wells. Prepare ASYN standard curve wells as described in the kit manual.\n8) Add 50 μL of anti-α-Synuclein (Detection Antibody) solution to each well, tapping the plate to mix. Cover the plate with a tape seal and incubate for 3 h at RT.\n9) Wash wells four times with wash buffer using a multichannel pipette and add 100 μL of anti-rabbit IgG-HRP antibody solution to each well. Cover the plate and incubate for 30 min at RT. Wash wells four times with wash buffer and add 100 μL of Stabilized Chromogen to each well. Seal the plate and incubate in the dark at RT for 30 min.\n10) Finally, add 100 μL of Stop Solution to each well, tapping the plate to mix, and read absorbance at 450 nm using an Envision plate reader (Perkin Elmer)."}, "[4]": {"test_system": "PrP-5′UTR (prion protein IRE)", "format": "cell-based, human", "settings": "versus SNCA 5′UTR"}, "PGL3 5′UTR": {"test_system": "PGL3 5′UTR", "assay": "Secondary (counterscreen) luciferase assay in H4-C cells, IRE stem-loop removed", "format": "cell-based, human", "settings": "versus SNCA 5′UTR"}, "[5]": {"test_system": "α-Syn in tyrosine hydroxylase positive (TH+) neurons", "assay": "Immunocytochemical quantitation of α-Syn in TH+ SNCA+ neurons", "format": "cell-based", "settings": "low dose; decreased from 30 %", "from_the_text": "FIG. 14 illustrates that immunocytochemical quantitation of effect of Compound 2 on α-Syn expression in tyrosine hydroxylase positive (TH+) α-synuclein positive (SNCA+) neurons. Panel A: antibody stains for TH and α-Syn. TH positive cells were counted. TH positive and SNCA positive cells were counted. The quantification was done by collecting 9 image fields/well with 3 wells/condition Panel B. The images were fed into Cell Profiler (Broad software)."}}, "note": "Read-outs that look alike come from different tables or passages of the source."}
{"smiles": "CN1CC[C@]2(C)c3cc(OC(=O)Nc4ccccc4)ccc3N(C)[C@H]12", "note": "[Posiphen, reference compound]", "values": [{"measurement": "binding to SNCA IRE (fluorescence of sensor R7)", "setting": "SNCA IRE", "result": "no measurable effect or quenching effect"}, {"measurement": "Decrease αsyn(%) X3 SNCA neurons", "setting": "α-Syn", "result": 5, "unit": "%"}, {"measurement": "Decrease syn(%) X3 SNCA neuron", "setting": "α-Syn; Table 3", "result": 5, "unit": "%"}, {"measurement": "α-syn levels (Western blot)", "setting": "α-Synuclein [1]", "result": "reduced"}, {"measurement": "IC50", "setting": "[2]; Table 2, H4 cells, luciferase, read-out: IC50/μM (SNCA 5′UTR)", "result": 10, "unit": "µM"}, {"measurement": "Decrease αsyn(%) DA neurons", "setting": "α-Synuclein [3]; concentration not given", "result": 25, "unit": "%"}, {"measurement": "Decrease syn(%) DA neurons", "setting": "α-Synuclein [3]; concentration not given", "result": 25, "unit": "%"}, {"measurement": "Decrease αsyn(%) SHSY5Y cells", "setting": "alpha-synuclein; @10 μM", "result": "25-50 @10%"}, {"measurement": "Decrease syn(%) SHSY5Y cells", "setting": "alpha-synuclein; @10 µM", "result": "25-50 @10M ^ %"}]}
{"smiles": "COc1cccc(N2CCN(C(=O)c3ccc(C[S+]([O-])c4ccc(C)cc4)o3)CC2)c1", "note": "(centres unmarked) [Compound 11, 1-(3-Methoxyphenyl)-4-(5-{[(4-methylphenyl)sulfinyl]methyl}-2-furoyl)piperazine]", "values": [{"measurement": "Selectivity PrP-5′UTR", "setting": "[4]; Table 3", "result": "126-fold"}, {"measurement": "binding to SNCA IRE (fluorescence of sensor R7)", "setting": "SNCA IRE", "result": "binds strongly"}, {"measurement": "IC50", "setting": "[2]; Homo sapiens, Table 3, H4 cells, luciferase, read-out: IC50/M (SNCA 5′UTR)", "result": 0.1, "unit": "µM"}, {"measurement": "Selectivity PGL3 5′UTR", "setting": "PGL3 5′UTR; Table 3", "result": "58-fold"}, {"measurement": "Decrease syn(%) SHSY5Y cells", "setting": "alpha-synuclein; @ 1 µM", "result": "14-28 @ 1M^ %"}]}
{"smiles": "COc1ccc(N(CC(=O)Nc2cc(Cl)ccc2OC)S(=O)(=O)c2c(C)noc2C)cc1", "note": "[Compound 2, N-(5-chloro-2-methoxyphenyl)-2-((N-(4-methoxyphenyl)-3,5-dimethylisoxazole)-4-sulfonamido)acetamide]", "values": [{"measurement": "Selectivity PrP-5′UTR", "setting": "[4]; Table 2", "result": "18-fold"}, {"measurement": "Selectivity PrP-5′UTR", "setting": "[4]; Table 3", "result": "18-fold"}, {"measurement": "binding to SNCA IRE (fluorescence of sensor R7)", "setting": "SNCA IRE", "result": "significant increases in binding"}, {"measurement": "number of TH/SNCA positive cells", "setting": "[5]", "result": 18, "unit": "%"}, {"measurement": "Decrease αsyn(%) X3 SNCA neurons", "setting": "α-Syn", "result": 50, "unit": "%"}, {"measurement": "inhibition of α-Synuclein protein expression versus β-Syn, γ-Syn, Ferritin, APP and Prion proteins", "setting": "α-Synuclein [1]; 1 μM, 72 h, normalized to β-Actin", "result": "selectively inhibit"}, {"measurement": "α-syn levels (Western blot)", "setting": "α-Synuclein [1]; 10 μM and 1 μM compound, 72 h, β-actin standardized, N=3", "result": "reduced"}, {"measurement": "IC50", "setting": "[2]; Homo sapiens, read-out: IC50/M (SNCA 5′UTR)", "result": 5.8, "unit": "µM"}, {"measurement": "IC50", "setting": "[2]; Homo sapiens, read-out: IC50/μM (SNCA 5′UTR)", "result": 5.8, "unit": "µM"}, {"measurement": "Selectivity PGL3 5′UTR", "setting": "PGL3 5′UTR; Table 2", "result": "21-fold"}, {"measurement": "Selectivity PGL3 5′UTR", "setting": "PGL3 5′UTR; Table 3", "result": "21-fold"}, {"measurement": "Decrease αsyn(%) DA neurons", "setting": "α-Synuclein [3]; @ 1 μM", "result": "60 @ 1 μM %"}, {"measurement": "Decrease syn(%) DA neurons", "setting": "α-Synuclein [3]", "result": "60 @ 1M %"}, {"measurement": "Decrease αsyn(%) SHSY5Y cells", "setting": "alpha-synuclein; @ 0.1 μM", "result": "25-50 @ 0.1%"}, {"measurement": "Decrease syn(%) SHSY5Y cells", "setting": "alpha-synuclein; @ 0.1 µM", "result": "25-50 @ 0.1M %"}]}
